Results: patent publication US12558424B2, “T cells having enhanced anti-tumor activity” (The United States of America, as represented by the …, priority 2019, dated 2026)
Read-outs that look alike come from different tables or passages of the source.

Tests used:
LDA(B) = LDA(B) (Homo sapiens, UniProt P07195); test: LDA(B) biochemical IC50
[1] = PK AUC after IV and PO dosing; details: in vivo
MiaPaCa [2] = test: MiaPaCa CTG; format: cell-based; details: Homo sapiens, MIA PaCa-2; MiaPaCa cells
A673 [3] = test: A673 CTG; format: cell-based; details: Homo sapiens; A673 cells
MiaPaCa [4] = test: MiaPaCa Lactate OP; format: cell-based; details: Homo sapiens, MIA PaCa-2; MiaPaCa cells
LDH(A) = LDH(A) (Homo sapiens, UniProt P00338); test: LDH(A) biochemical IC50
A673 [5] = test: A673 Lactate OP; format: cell-based; details: Homo sapiens; A673 cells
lactate dehydrogenase = lactate dehydrogenase (Homo sapiens, UniProt P00338); test: SPR binding (+NADH)
[6] = test system: murine splenic CD8+ T cells; test: U-13C-glucose tracer study; format: cell-based, mouse; details: NCI-737 1 μM
Method: (§1) Except where otherwise specified, all experiments were performed with murine splenic CD8+ T cells isolated with […] Technologies EasySep™ Mouse CD8+ T Cell Isolation Kit (catalog #19853). Following isolation, cells were resuspended at 1×10^6 cells/ml in T cell culture medium: RPMI 1640 medium (Thermo 11875093) containing 10% fetal bovine serum (FBS), 1× Glutamax (Life Technologies #35050-061), 1 mM sodium pyruvate, 0.1% β-mercaptoethanol, and penicillin/streptomycin. Cells were plated in 24-well tissue culture plates precoated with mouse anti-CD3 (2 μg/ml) and cultured with soluble mouse anti-CD28 (2 μg/ml) for 48 h. After incubation, cells were pooled, washed twice in media, and re-plated at 1×10^6 cells/ml. […] Unless otherwise specified, cells were stimulated for 48 h before being harvested. […]
(§2) Cells were then washed with media supplemented with dialyzed fetal bovine serum (“FBS”) (Thermo-Fischer #A3382001), replated in RPMI 1640 medium containing 10% dialyzed FBS, 1× Glutamax (ThermoFisher #35050061), 1 mM sodium pyruvate, 0.1% β-mercaptoethanol, and penicillin-streptomycin, and re-stimulated with same cytokine treatment for 5 h. […] Cell extracts were analyzed using a quadrupole-orbitrap mass spectrometer (Q Exactive, Thermo Fisher Scientific, San Jose, CA) coupled to hydrophilic interaction chromatography via electrospray ionization. […] Data were analyzed using EL-MAVEN software. […]

human CD8+ T cells = test: Seahorse mitochondrial stress test (OCR, ECAR, SRC), human CD8+ T cells; format: cell-based; details: both IL-21 and IL-2
mouse CD8+ T cells = test: Seahorse mitochondrial stress test (OCR, ECAR, SRC), mouse CD8+ T cells; format: cell-based; details: NCI-737 1 μM
Method: (§3) Except where otherwise specified, all experiments were performed with murine splenic CD8+ T cells isolated with […] Technologies EasySep™ Mouse CD8+ T Cell Isolation Kit (catalog #19853). Following isolation, cells were resuspended at 1×10^6 cells/ml in T cell culture medium: RPMI 1640 medium (Thermo 11875093) containing 10% fetal bovine serum (FBS), 1× Glutamax (Life Technologies #35050-061), 1 mM sodium pyruvate, 0.1% β-mercaptoethanol, and penicillin/streptomycin. Cells were plated in 24-well tissue culture plates precoated with mouse anti-CD3 (2 μg/ml) and cultured with soluble mouse anti-CD28 (2 μg/ml) for 48 h. After incubation, cells were pooled, washed twice in media, and re-plated at 1×10^6 cells/ml. […] Unless otherwise specified, cells were stimulated for 48 h before being harvested. Where noted, cells were treated (1 μM) with a novel, pyrazole-based LDH inhibitor (NCI-737, herein denoted as NCI-737) that was developed under the auspices of the NCI Experimental Therapeutics Program 29.
The oxygen consumption rates (OCR) and extracellular acidification rates (ECAR) were recorded using a Seahorse XFe96 Analyzer (Agilent). Cells were washed and resuspended in Agilent XF Assay Medium supplemented with 25 mM glucose, 1 mM sodium pyruvate, and 2 mM L-Glutamine. Cells were plated on Seahorse Assay plates at 0.2×10^6 cells/well and during the assay were exposed to 1 μM oligomycin, 1.5 μM trifluoromethoxy carbonylcyanide phenylhydrazone (“FCCP”), 100 nM rotenone, and 1 μM antimycin A, as indicated.

B16 melanoma (B16KVP) = test: Mouse tumor model and adoptive transfer; format: in vivo
pmel-1 CD8+ T cells = test: Flow cytometry of pmel-1 CD8+ T cell differentiation (CD44, CD62L, Sca-1); format: cell-based, mouse; details: NCI-737 1 μM
[7] = test system: murine splenic CD8+ T cells; test: LC-MS metabolomics of intracellular metabolites; format: cell-based, mouse; details: NCI-737 1 μM
Method: as §3
Cells were then washed with media supplemented with dialyzed fetal bovine serum (“FBS”) (Thermo-Fischer #A3382001), replated in RPMI 1640 medium containing 10% dialyzed FBS, 1× Glutamax (ThermoFisher #35050061), 1 mM sodium pyruvate, 0.1% β-mercaptoethanol, and penicillin-streptomycin, and re-stimulated with same cytokine treatment for 5 h. For ^13C labelling, cells were instead replated in media containing 2 g/L U^13C-glucose (Cambridge Isotope Laboratories #CLM-1396) for 6 h. 3×10^6 cells/replicate (3-4 replicates/treatment) were then transferred to microcentrifuge tubes and centrifuged for 1 min at 6000×g. Room temperature PBS was added to wash cell pellets followed by another round of centrifugation for 1 min. Pellets were then immediately resuspended in 150 μl of ice cold extraction solvent (40:40:20 acetonitrile:methanol:water+0.5% formic acid) for 5 min. After incubation, 13.2 μl of 15% ammonium bicarbonate, was added and samples were centrifuged for 15 min at maximum speed at 4° C. Supernatant containing cellular metabolites was transferred to a fresh tube, frozen in dry ice, and stored at −80° C. Cell extracts were analyzed using a quadrupole-orbitrap mass spectrometer (Q Exactive, Thermo Fisher Scientific, San Jose, CA) coupled to hydrophilic interaction chromatography via electrospray ionization. LC separation was on a XBridge BEH Amide column (2.1 mm×150 mm, 2.5 μm particle size; Waters, Milford, MA) using a gradient of solvent A (20 mM ammonium acetate, 20 mM ammonium hydroxide in 95:5 water: acetonitrile, pH 9.45) and solvent B (acetonitrile). The flow rate was 150 μl/min, column temperature was 25° C., autosampler temperature was 5° C., and injection volume was 10 μL. The LC gradient was: 0 min, 90% B; 2 min, 85% B; 3 min, 75% B; 7 min, 75% B; 8 min, 70% B; 9 min, 70% B; 10 min, 50% B; 12 min, 50% B; 13 min, 25% B; 14 min, 25% B; 16 min, 0% B; 21 min, 0% B; 22 min, 90% B; 25 min, 90% B. Autosampler temperature was 5° C., and injection volume was 10 μl. The mass spectrometer was operated in negative ion mode to scan from m/z 70 to 1000 at 1 Hz and a resolving power of 140,000 45. Data were analyzed using EL-MAVEN software. Isotope labeling was corrected for natural 13C abundance47. Media measurements were acquired using a YSI 2900 Series Biochemical Analyzer (Xylem).

[8] = test system: murine splenic CD8+ T cells; test: Media measurements of lactate secretion and glucose consumption (YSI 2900 analyzer); format: cell-based, mouse; details: IL-2- or IL-21-stimulated cells; NCI-737 1 μM
Method: as §1, §2

[9] = test system: murine splenic CD8+ T cells; test: RNA-Seq gene expression; format: cell-based, mouse
Method: as §3
Total RNA was extracted using an RNA miniprep kit (Zymo Research), and 500 ng RNA was used for library preparation. RNA-Seq libraries were prepared using mRNA HyperPrep Kits (KK8580, Kapa Biosystems) and indexed with NEXTflex DNA Barcodes-24. After final amplification, samples were loaded to 2% E-Gel pre-cast gels (ThermoFisher), and 250 to 400 bp DNA fragments were recovered and purified with Zymoclean Gel DNA Recovery Kit […]. After quantification by Qubit (Invitrogen), barcoded samples were mixed and sequenced on an Illumina HiSeq3000 platform. Sequenced reads (50 bp, single end) were obtained with the Illumina CASAVA pipeline and mapped to the mouse genome mm10 (GRCm38, December 2011) using Bowtie 2.2.649 and Tophat 2.2.149. Only uniquely mapped reads were retained. Raw counts that fell on exons were calculated and normalized by using RPKM (Reads Per Kilobase per Million mapped reads). Differentially expressed genes were identified with the R Bioconductor package edgeR50, and the expression heat maps were generated with the R package “pheatmap”. Metabolic genes were extracted from the KEGG pathway database, including those corresponding to Fatty Acid Biosynthesis/Degradation, Ox/Phos, Pyruvate metabolism, amino sugar and nucleotide sugar metabolism, pentose phosphate pathway, the citric acid cycle, and glycolysis/gluconeogenesis. Metabolic genes that overlapped with RNA-Seq data were subsequently shown in heat maps.

[10] = PO 50 mg/kg, read-out: PO 50 mg/kg AUC

LDA(B), sequence (P07195 whole entry): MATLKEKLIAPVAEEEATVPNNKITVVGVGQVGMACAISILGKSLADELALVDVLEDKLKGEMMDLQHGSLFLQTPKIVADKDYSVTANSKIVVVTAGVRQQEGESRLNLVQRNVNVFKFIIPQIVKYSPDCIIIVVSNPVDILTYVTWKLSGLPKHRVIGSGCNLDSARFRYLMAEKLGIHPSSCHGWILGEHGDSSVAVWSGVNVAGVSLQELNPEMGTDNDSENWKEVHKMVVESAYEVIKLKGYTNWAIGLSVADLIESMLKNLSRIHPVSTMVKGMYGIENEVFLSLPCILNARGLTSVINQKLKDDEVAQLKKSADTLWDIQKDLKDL

Structure (SMILES): Cc1ccc(C#Cc2cc(-c3nn(-c4nc(C(=O)O)cs4)c(CC4CC4)c3Cc3ccc(S(N)(=O)=O)c(F)c3)ccc2F)s1 [Compound 390006]
- IC50 (LDA(B)): 53 nM
- AUC ([1]; IV 10 mg/kg): 10600 ng·h/mL
- AUC [1, 10]: 31400 ng·h/mL
- EC50 (MiaPaCa [2]): 355 nM
- EC50 (A673 [3]): 305 nM
- EC50 (MiaPaCa [4]): 283 nM
- IC50 (LDH(A)): 80 nM
- EC50 (A673 [5]): 349 nM
- SPR ka (+NADH) (lactate dehydrogenase): 15000 M⁻¹ s⁻¹
- SPR kd (+NADH) (lactate dehydrogenase): <1e-06 s⁻¹

Structure (SMILES): Cc1ccc(C#Cc2cccc(-c3nn(-c4nc(C(=O)O)cs4)c(CC4CC4)c3Cc3ccc(S(N)(=O)=O)c(F)c3)c2)s1 [Compound 420737]
- relative contribution of glucose into the TCA cycle ([6]; IL-2-treated cells): higher relative contribution
- isotopomer distribution ([6]; IL-21-stimulated cells): little effect
- IC50 (LDA(B)): 44 nM
- AUC ([1]; IV 10 mg/kg): 16500 ng·h/mL
- AUC [1, 10]: 53400 ng·h/mL
- ECAR (human CD8+ T cells): decreased
- SRC (human CD8+ T cells): raised
- ECAR (mouse CD8+ T cells; IL-2-treated cells): decreased
- OCR (mouse CD8+ T cells; IL-2-treated cells): significantly increased
- SRC (mouse CD8+ T cells; IL-2-treated cells): significantly increased
- ECAR (mouse CD8+ T cells; IL-21-treated cells): did not significantly alter
- SRC (mouse CD8+ T cells; IL-21-treated cells): did not significantly alter
- basal OCR (mouse CD8+ T cells; IL-21-treated cells): did not significantly alter
- antitumor effect of adoptively transferred pmel-1 CD8+ T cells (B16 melanoma (B16KVP); IL-2-treated cells, NCI-737 1 μM only during in vitro expansion): augmented the antitumor effect to the level of IL-21-treated cells
- antitumor effect of adoptively transferred pmel-1 CD8+ T cells (B16 melanoma (B16KVP); cells generated with IL-21 and NCI-737 (1 μM, in vitro only)): the most potent
- TSCM cells (pmel-1 CD8+ T cells; IL-2-treated pmel-1 cells): restored TSCM cells in IL-2-treated cells to the levels observed with IL-21
- TSCM cells (pmel-1 CD8+ T cells; IL-21-treated pmel-1 cells): synergized with IL-21 to generate TSCM cells
- EC50 (MiaPaCa [2]): 319 nM
- EC50 (A673 [3]): 221 nM
- increase in the NADH/NAD+ ratio ([7]; IL-2-treated cells): ~100 fold
- intracellular pyruvate ([7]; IL-2-treated cells): markedly increased
- 2-hydroxyglutarate (2HG) ([7]; IL-2 setting): decreased
- increase in glycolytic intermediates and FGAR ([7]; IL-2 setting): > 4 fold
- NADH/NAD+ ratio ([7]; IL-21 stimulated cells): slightly raised
- intracellular pyruvate levels ([7]; IL-21 stimulated cells): did not alter
- metabolite levels ([7]; IL-21 stimulated cells): little effect
- lactate in cells ([7]; cells stimulated with either IL-2 or IL-21): lowered
- glucose consumption [8]: reduced
- lactate secretion [8]: reduced
- EC50 (MiaPaCa [4]): 236 nM
- transcripts for exhaustion-associated transcription factors Nr4a1, Nr4a2, Nrfa3, Prdm1 ([9]; IL-2-induced, addition of NCI-737): decreased by the addition of NCI-737 to levels similar to that observed in cells cultured with IL-21
- induction of Ldha by IL-2 ([9]; IL-2 context, NCI-737 1 μM): prevented the induction
- levels of Ldhb ([9]; IL-2 context, NCI-737 1 μM): increased
- XBP1 transcript expression ([9]; induced by IL-2, NCI-737): inhibited
- transcripts for exhaustion markers Lag3, Pdcd1, Cd244, Havcr2 ([9]; induced by IL-21, addition of NCI-737): repressed
- IC50 (LDH(A)): 68 nM
- EC50 (A673 [5]): 344 nM
- SPR ka (+NADH) (lactate dehydrogenase): 16000 M⁻¹ s⁻¹
- SPR kd (+NADH) (lactate dehydrogenase): <1e-06 s⁻¹
